# Columns and labels:
# [1] = Excerpt: CB-0406 tromethamine salt has been characterized using DSC, TGA, XRPD, hot stage microscopy, and solution ^1H NMR. CB-0406 tromethamine salt has also been tested by relative humidity stressing, and its solubility measured in simulated intestinal fluid without pancreatin.
# [2] = at 95% relative humidity relative to weight at 5% relative humidity; approx. 0.2 equivalents of water; essentially completely reversible
# Experimental: A DVS analysis of CB-0406 tromethamine salt was performed using a VTI SGA-100 Vapor Sorption Analyzer. The sample was not dried prior to analysis, and data were not corrected for the initial moisture content of the sample. Equilibrium criteria used for analysis were less than 0.010% weight change in 5 minutes, with a maximum equilibration time of 3 hours if the weight criterion was not met. […] Sodium chloride and polyvinylpyrrolidone were used as calibration standards.
# [3] = 75% RH and 41° C.
# Experimental: Relative humidity (RH) stressing of CB-0406 tromethamine salt was performed by placing solid CB-0406 tromethamine salt in an RH chamber containing a saturated aqueous solution of sodium chloride (˜75% RH), potassium chloride (˜84% RH, RT/-82% RH, 40° C.), sodium bromide (˜58% RH, RT), or potassium sulfate (˜97% RH, RT/-96% RH, 40° C.), with excess salt present. The chamber was sealed and left at ambient temperature or placed in an oven at elevated temperature.
# [4] = target: CYP 2C9 (Homo sapiens, UniProt P11712); details: tolbutamide hydroxylation assay; relative to (S)-enantiomer; cited from earlier work
# CYP 2C9, sequence (P11712 whole entry, species assumed): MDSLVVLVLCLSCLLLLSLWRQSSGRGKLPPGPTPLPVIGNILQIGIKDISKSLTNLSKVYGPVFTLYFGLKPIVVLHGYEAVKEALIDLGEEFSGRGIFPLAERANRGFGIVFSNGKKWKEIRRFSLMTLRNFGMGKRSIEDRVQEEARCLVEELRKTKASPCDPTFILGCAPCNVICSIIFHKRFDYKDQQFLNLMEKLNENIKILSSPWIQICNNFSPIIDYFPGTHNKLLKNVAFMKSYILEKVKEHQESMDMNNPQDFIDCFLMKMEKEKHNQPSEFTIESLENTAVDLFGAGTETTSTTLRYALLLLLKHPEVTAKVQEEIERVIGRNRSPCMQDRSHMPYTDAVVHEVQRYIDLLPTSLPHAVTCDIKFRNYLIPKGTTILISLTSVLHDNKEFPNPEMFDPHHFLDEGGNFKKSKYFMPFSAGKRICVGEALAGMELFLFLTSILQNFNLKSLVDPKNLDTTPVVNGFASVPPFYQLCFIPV
Molecule,solubility ([1]; simulated intestinal fluid without pancreatin),"solubility in simulated intestinal fluid, fold greater than that of CB-0406 ([1]; simulated intestinal fluid, relative to CB-0406)",net weight gain (DVS) [2],appearance after RH stressing ([3]; at 7 and 9 days),"XRPD analysis after RH stressing ([3]; at 18 and 46 days, some increase in low angle scattering background)",fold less active as an inhibitor of CYP 2C9 than its (S)-enantiomer [4]
"1,3-dihydroxy-2-(hydroxymethyl)propan-2-aminium (2R)-2-(4-chlorophenyl)-2-[3-(trifluoromethyl)phenoxy]acetate [CB-0406 tromethamine salt]",> 200 mg/mL,≥ 60 fold,less than 0.8%,free-flowing solid,consistent with CB-0406 tromethamine salt,
"O=C(O)[C@H](Oc1cccc(C(F)(F)F)c1)c1ccc(Cl)cc1 [CB-0406, (2R)-2-(4-chlorophenyl)-2-[3-(trifluoromethyl)phenoxy]acetic acid]",,,,,,approximately 20 fold
